Laboratory results from PMC12649549, “Sequence Permutation Generated Lysine and Tryptophan-Rich Antimicrobial Peptides with Enhanced Therapeutic Index” (Antibiotics, 2025).
Where two headings read alike, the source gives them in different places.

Tests used:
[1] = system: A. baumannii 14B00100 (Acinetobacter sp., BCRC number 14B0100)
Experimental: (§1) The antibacterial and salt-resistant activity of the peptides was tested using Escherichia coli (ATCC 25922), Pseudomonas aeruginosa Migula (ATCC 27853), Acinetobacter sp. (BCRC number 14B0091, BCRC number 14B0097, and BCRC number 14B0100), and Staphylococcus aureus sp. strains (ATCC 25923, ATCC 33591, ATCC 33592, ATCC 33593, and ATCC 6538). All bacteria were obtained from the Food Industry Research and Development Institute (Hsinchu, Taiwan) and cultured in sterilized Müller-Hinton (MH) broth at 37 °C and 200 rpm for 8 h. The inoculum concentrations were determined by measuring the optical density at 600 nm (OD 600 = 1, approximately 10^8 CFU/mL) using an Ultrospec 2100 pro UV-Visible spectrophotometer (Biochrom Ltd., Cambridge, UK) after 8 h of culture.
(§2) The antibacterial activities of the peptides in Müller-Hinton (MH) broth and modified LYM broth were determined using the standard broth microdilution method as per Clinical and Laboratory Standards Institute (CLSI) guidelines. The LYM broth was prepared with specific components and adjusted to different conditions, including varying concentrations of NaCl and MgCl2, and different pH levels. To prepare the LYM broth, 5.4 mM KCl, 5.6 mM Na2HPO4, 0.5 mM MgSO4, and 1.0 mM sodium citrate were added. Additionally, 0.4 mg of ZnCl2, 2.0 mg of FeCl3·6H2O, 0.1 mg of CuSO4·5H2O, 0.1 mg of MnSO4·H2O, 0.1 mg of Na2B4O7∙10H2O, 700 mg of amino acid mixtures without tryptophan (Takara Bio Inc., San Jose, CA, USA), and 20 mg of L-tryptophan were added per liter of medium. The pH was adjusted to 7.4, and a vitamin mixture (100X, Sigma) and glucose concentration of 2% were added. For different conditions of LYM broth, NaCl concentrations of 300, 200, 150, and 50 mM, MgCl2 concentrations of 2.5, 1.5, and 0.5 mM, and pH levels of 6.5, 5.5, and 4.5 were adjusted. Bacterial strains were incubated in MH broth overnight, regrown, and diluted to a final concentration of 5 × 10^5 CFU/mL. Peptides were added to each well at final concentrations of 50, 25, 12.5, 6.25, 3.13, 1.56, and 0.78 µg/mL, and 99 µL of diluted microbes was loaded into each well of a polypropylene 96-well plate. […] The Morpheus HeatMap software (https://software.broadinstitute.org/morpheus/) was used to display MIC values on a color scale. All experiments were independently repeated three times.

[2] = system: A. baumannii 14B0091 (Acinetobacter sp., BCRC number 14B0091)
Experimental: as §1, §2

[3] = system: A. baumannii 14B0097 (Acinetobacter sp., BCRC number 14B0097)
Experimental: as §1, §2

[4] = system: Escherichia coli (ATCC 25922)
Experimental: as §1, §2

S. aureus ATCC 25923 = system: S. aureus ATCC 25923
Experimental: as §1, §2

S. aureus ATCC 6538 = system: S. aureus ATCC 6538
Experimental: as §1, §2

Gram-negative bacteria = assay: Geometric mean MIC and therapeutic index, Gram-negative bacteria; type: cell-based; details: Gram-negative bacteria
Experimental: (§3) In this study, we aimed to investigate the potential of W5K series peptides for therapeutic use. To evaluate their efficacy for antibacterial therapy, we used the Therapeutic Index (TI) as a measure of their cell selectivity. The TI was calculated as the ratio of the concentration causing 10% hemolysis of human red blood cells (HC10) to the geometric mean minimum inhibitory concentration (GM) of the peptides against both Gram-negative and Gram-positive bacteria. This parameter was used to quantitatively assess the balance between antibacterial potency and cytotoxicity among the W5K derivatives.
as §2

Gram-positive bacteria = assay: Geometric mean MIC and therapeutic index, Gram-positive bacteria; type: cell-based; details: Gram-positive bacteria
Experimental: as §3, §2

[5] = LYM broth, 0 mM NaCl, 16 h, 37 °C
[6] = LYM broth, 50 mM NaCl, 16 h, 37 °C
[7] = LYM broth, 100 mM NaCl, 16 h, 37 °C
[8] = LYM broth, 200 mM (NaCl), 16 h, 37 °C
[9] = LYM broth, 300 mM (NaCl), 16 h, 37 °C
[10] = MH broth, 5 × 10^5 CFU/mL, 16 h, 37 °C, repeated three times
[11] = MH broth, MIC >50 µg/mL counted as 100 µg/mL

Ac-KKWRKWLKWLAKK-NH2 [W5K/A9W]
MIC [1, 5]: 1.56 µg/mL
MIC ([1]; LYM broth, 0.5 mM MgCl2): 1.56 µg/mL
MIC ([1]; LYM broth, 1.5 mM MgCl2): 1.56 µg/mL
MIC ([1]; LYM broth, 2.5 mM MgCl2): 1.56 µg/mL
MIC [1, 6]: 1.56 µg/mL
MIC [1, 7]: 1.56 µg/mL
MIC [1, 8]: 1.56 µg/mL
MIC [1, 9]: 1.56 µg/mL
MIC ([1]; LYM broth, pH 4.5): 1.56 µg/mL
MIC ([1]; LYM broth, pH 5.5): 1.56 µg/mL
MIC ([1]; LYM broth, pH 6.5): 1.56 µg/mL
MIC [1, 10]: 1.56 µg/mL
MIC [2, 5]: 1.56 µg/mL
MIC ([2]; LYM broth, 0.5 mM MgCl2): 1.56 µg/mL
MIC ([2]; LYM broth, 1.5 mM MgCl2): 1.56 µg/mL
MIC ([2]; LYM broth, 2.5 mM MgCl2): 1.56 µg/mL
MIC [2, 6]: 1.56 µg/mL
MIC [2, 7]: 1.56 µg/mL
MIC [2, 8]: 1.56 µg/mL
MIC [2, 9]: 1.56 µg/mL
MIC ([2]; LYM broth, pH 4.5): 1.56 µg/mL
MIC ([2]; LYM broth, pH 5.5): 1.56 µg/mL
MIC ([2]; LYM broth, pH 6.5): 1.56 µg/mL
MIC [2, 10]: 1.56 µg/mL
MIC [3, 5]: 1.56 µg/mL
MIC ([3]; LYM broth, 0.5 mM MgCl2): 1.56 µg/mL
MIC ([3]; LYM broth, 1.5 mM MgCl2): 1.56 µg/mL
MIC ([3]; LYM broth, 2.5 mM MgCl2): 1.56 µg/mL
MIC [3, 6]: 1.56 µg/mL
MIC [3, 7]: 1.56 µg/mL
MIC [3, 8]: 1.56 µg/mL
MIC [3, 9]: 1.56 µg/mL
MIC ([3]; LYM broth, pH 4.5): 1.56 µg/mL
MIC ([3]; LYM broth, pH 5.5): 1.56 µg/mL
MIC ([3]; LYM broth, pH 6.5): 1.56 µg/mL
MIC [3, 10]: 1.56 µg/mL
MIC [4, 5]: 1.56 µg/mL
MIC ([4]; LYM broth, 0.5 mM MgCl2): 3.13 µg/mL
MIC ([4]; LYM broth, 1.5 mM MgCl2): 3.13 µg/mL
MIC ([4]; LYM broth, 2.5 mM MgCl2): 6.25 µg/mL
MIC [4, 6]: 1.56 µg/mL
MIC [4, 7]: 3.13 µg/mL
MIC [4, 8]: 3.13 µg/mL
MIC [4, 9]: 12.5 µg/mL
MIC ([4]; LYM broth, pH 4.5): 1.56 µg/mL
MIC ([4]; LYM broth, pH 5.5): 1.56 µg/mL
MIC ([4]; LYM broth, pH 6.5): 1.56 µg/mL
MIC [4, 10]: 3.13 µg/mL
MIC (S. aureus ATCC 25923; [5]): 1.56 µg/mL
MIC (S. aureus ATCC 25923; LYM broth, 0.5 mM MgCl2): 1.56 µg/mL
MIC (S. aureus ATCC 25923; LYM broth, 1.5 mM MgCl2): 3.13 µg/mL
MIC (S. aureus ATCC 25923; LYM broth, 2.5 mM MgCl2): 3.13 µg/mL
MIC (S. aureus ATCC 25923; [6]): 1.56 µg/mL
MIC (S. aureus ATCC 25923; [7]): 3.13 µg/mL
MIC (S. aureus ATCC 25923; [8]): 3.13 µg/mL
MIC (S. aureus ATCC 25923; [9]): 6.25 µg/mL
MIC (S. aureus ATCC 25923; LYM broth, pH 4.5): 3.13 µg/mL
MIC (S. aureus ATCC 25923; LYM broth, pH 5.5): 1.56 µg/mL
MIC (S. aureus ATCC 25923; LYM broth, pH 6.5): 1.56 µg/mL
MIC (S. aureus ATCC 25923; [10]): 3.13 µg/mL
MIC (S. aureus ATCC 6538; [5]): 1.56 µg/mL
MIC (S. aureus ATCC 6538; LYM broth, 0.5 mM MgCl2): 1.56 µg/mL
MIC (S. aureus ATCC 6538; LYM broth, 1.5 mM MgCl2): 1.56 µg/mL
MIC (S. aureus ATCC 6538; LYM broth, 2.5 mM MgCl2): 1.56 µg/mL
MIC (S. aureus ATCC 6538; [6]): 1.56 µg/mL
MIC (S. aureus ATCC 6538; [7]): 1.56 µg/mL
MIC (S. aureus ATCC 6538; [8]): 3.13 µg/mL
MIC (S. aureus ATCC 6538; [9]): 6.25 µg/mL
MIC (S. aureus ATCC 6538; LYM broth, pH 4.5): 3.13 µg/mL
MIC (S. aureus ATCC 6538; LYM broth, pH 5.5): 1.56 µg/mL
MIC (S. aureus ATCC 6538; LYM broth, pH 6.5): 1.56 µg/mL
MIC (S. aureus ATCC 6538; [10]): 6.25 µg/mL
GM G− (geometric mean of the MIC values) (Gram-negative bacteria; [11]): 2.1 µg/mL
Therapeutic Index (TI) G− (Gram-negative bacteria; HC10/GM): 14.5
GM G+ (geometric mean of the MIC values) (Gram-positive bacteria; [11]): 8.2 µg/mL
Therapeutic Index (TI) G+ (Gram-positive bacteria; HC10/GM): 3.6
